Source: patent US10645928B2, “Pesticidally active polycyclic derivatives with sulfur containing substituents” (Syngenta Participations AG, priority 2014, dated 2020)

Columns and labels:
[1] = tested on: Plutella xylostella (Diamond Back Moth); experiment: Example B13: Plutella xylostella, treated artificial diet, mortality and growth inhibition; type: in vivo; conditions: 120 h, application rate of 200 ppm, L2 larvae, 5 days after infestation, read-out: effect in at least one of the two categories (mortality or growth inhibition)
Procedure: (§1) 24-well microtiter plates with artificial diet were treated with aqueous test solutions prepared from 10,000 ppm DMSO stock solutions by pipetting. After drying, the plates were infested with L2 larvae (10 to 15 per well). The samples were assessed for mortality and growth inhibition in comparison to untreated samples 5 days after infestation.

[2] = tested on: Aedes aegypti (Yellow Fever Mosquito); experiment: Example B23: Aedes aegypti, dry deposits in 12 well tissue culture plates, control; type: in vivo; conditions: application rate of 200 ppm in ethanol, adult females, after 48 h and/or 24 h
Procedure: Test solutions, at an application rate of 200 ppm in ethanol, were applied to 12 well tissue culture plates. Once the deposits were dry, five, two to five day old adult female Aedes aegypti were added to each well, and sustained with a 10% sucrose solution in a cotton wool plug. Assessment of knockdown was made one hour after introduction, and mortality was assessed at 24 and 48 hours after introduction.

[3] = tested on: Spodoptera littoralis (Egyptian Cotton Leaf Worm); experiment: Example B14: Spodoptera littoralis, sprayed cotton leaf discs, anti-feeding effect; type: in vivo; conditions: foliar, 72 h, application rate of 200 ppm, L1 larvae, 3 days after infestation
Procedure: (§2) Cotton leaf discs were placed onto agar in 24-well microtiter plates and sprayed with aqueous test solutions prepared from 10,000 ppm DMSO stock solutions. After drying the leaf discs were infested with five L1 larvae. The samples were assessed for anti-feeding effect in comparison to untreated samples 3 days after infestation. Control of Spodoptera littoralis by a test sample is given when the anti-feedant effect is higher than the untreated sample.

[4] = tested on: Plutella xylostella (Diamond Back Moth); experiment: Example B10: Plutella xylostella, treated artificial diet, growth inhibition; type: in vivo; conditions: 120 h, application rate of 200 ppm, L2 larvae, 5 days after infestation
Procedure: as §1, with “for” for “for mortality and”, “infestation. Control of Plutella xylostella by a test sample is given when the growth inhibition is higher than the untreated sample.” for “infestation.”

[5] = tested on: Diabrotica balteata (Corn Root Worm); experiment: Example B3: Diabrotica balteata, sprayed maize sprouts, mortality; type: in vivo; conditions: 96 h, application rate of 200 ppm, L2 larvae, 4 days after infestation
Procedure: (§3) Maize sprouts placed onto an agar layer in 24-well microtiter plates were treated with aqueous test solutions prepared from 10,000 ppm DMSO stock solutions by spraying. After drying, the plates were infested with L2 larvae (6 to 10 per well). The samples were assessed for mortality 4 days after infestation.

[6] = tested on: Tetranychus urticae (Two-Spotted Spider Mite); experiment: Example B21: Tetranychus urticae, sprayed bean leaf discs, mortality; type: in vivo; conditions: foliar, 192 h, application rate of 200 ppm, mixed population (mobile stages), 8 days after infestation
Procedure: Bean leaf discs on agar in 24-well microtiter plates were sprayed with aqueous test solutions prepared from 10,000 ppm DMSO stock solutions. After drying the leaf discs were infested with a mite population of mixed ages. The samples were assessed for mortality on mixed population (mobile stages) 8 days after infestation.

[7] = tested on: Euschistus heros (Neotropical Brown Stink Bug); experiment: Example B5: Euschistus heros, sprayed soybean leaves, mortality; type: in vivo; conditions: 120 h, application rate of 200 ppm, N2 nymphs, 5 days after infestation
Procedure: (§4) Soybean leaves on agar in 24-well microtiter plates were sprayed with aqueous test solutions prepared from 10,000 ppm DMSO stock solutions. After drying the leaves were infested with N2 nymphs. The samples were assessed for mortality 5 days after infestation.

[8] = tested on: Diabrotica balteata (Corn Root Worm); experiment: Example B2: Diabrotica balteata, sprayed maize sprouts, mortality and growth inhibition; type: in vivo; conditions: 96 h, application rate of 200 ppm, L2 larvae, 4 days after infestation, read-out: effect in at least one of the two categories (mortality or growth inhibition)
Procedure: as §3, with “mortality and growth inhibition in comparison to untreated samples” for “mortality”

[9] = tested on: Spodoptera littoralis (Egyptian Cotton Leaf Worm); experiment: Example B19: Spodoptera littoralis, compound in agar absorbed by lettuce roots, anti-feedant effect; type: in vivo; conditions: 144 h, test rate of 12.5 ppm, uptake by lettuce roots, Spodoptera eggs, 6 days after infestation, read-out: anti-feeding
Source text: (§5) Test compounds were applied by pipette prepared from 10,000 ppm DMSO stock solutions into 24-well plates and mixed with agar. Lettuce seeds were placed onto the agar and the multi well plate was closed by another plate which contained also agar. After 7 days the compound was absorbed by the roots and the lettuce grew into the lid plate. The lettuce leaves were then cut off into the lid plate. Spodoptera eggs were pipetted through a plastic stencil onto a humid gel blotting paper and the lid plate was closed with it. The samples were assessed for anti-feedant effect in comparison to untreated samples 6 days after infestation.

[10] = tested on: Myzus persicae (Green Peach Aphid); experiment: Example B8: Myzus persicae, sprayed sunflower leaf discs, mortality; type: in vivo; conditions: foliar, 144 h, application rate of 200 ppm, leaf disc spray, aphid population of mixed ages, 6 days after infestation
Procedure: Sunflower leaf discs were placed onto agar in a 24-well microtiter plate and sprayed with aqueous test solutions prepared from 10,000 ppm DMSO stock solutions. After drying, the leaf discs were infested with an aphid population of mixed ages. The samples were assessed for mortality 6 days after infestation.

[11] = tested on: Spodoptera littoralis (Egyptian Cotton Leaf Worm); experiment: Example B16: Spodoptera littoralis, sprayed cotton leaf discs, mortality; type: in vivo; conditions: foliar, 72 h, application rate of 200 ppm, L1 larvae, 3 days after infestation
Procedure: Cotton leaf discs were placed onto agar in 24-well microtiter plates and sprayed with aqueous test solutions prepared from 10,000 ppm DMSO stock solutions. After drying the leaf discs were infested with five L1 larvae. The samples were assessed for mortality 3 days after infestation.

[12] = tested on: Euschistus heros (Neotropical Brown Stink Bug); experiment: Example B6: Euschistus heros, sprayed soybean leaves, mortality and growth inhibition; type: in vivo; conditions: 120 h, application rate of 200 ppm, N2 nymphs, 5 days after infestation, read-out: effect in at least one of the two categories (mortality or growth inhibition)
Procedure: as §4, with “mortality and growth inhibition in comparison to untreated samples” for “mortality”

[13] = tested on: Spodoptera littoralis (Egyptian Cotton Leaf Worm); experiment: Example B17: Spodoptera littoralis, sprayed cotton leaf discs, mortality, anti-feeding effect and growth inhibition; type: in vivo; conditions: foliar, 72 h, application rate of 200 ppm, L1 larvae, 3 days after infestation, read-out: control (at least one of mortality, anti-feedant effect, growth inhibition)
Procedure: Cotton leaf discs were placed onto agar in 24-well microtiter plates and sprayed with aqueous test solutions prepared from 10,000 ppm DMSO stock solutions. After drying the leaf discs were infested with five L1 larvae. The samples were assessed for mortality, anti-feeding effect, and growth inhibition in comparison to untreated samples 3 days after infestation. Control of Spodoptera littoralis by a test sample is given when at least one of the categories mortality, anti-feedant effect, and growth inhibition is higher than the untreated sample.

[14] = tested on: Plutella xylostella (Diamond Back Moth); experiment: Example B12: Plutella xylostella, treated artificial diet, mortality; type: in vivo; conditions: 120 h, application rate of 200 ppm, L2 larvae, 5 days after infestation
Procedure: 24-well microtiter plates with artificial diet were treated with aqueous test solutions prepared from 10,000 ppm DMSO stock solutions by pipetting. After drying, the plates were infested with L2 larvae (10 to 15 per well). The samples were assessed for mortality 5 days after infestation.

[15] = tested on: Spodoptera littoralis (Egyptian Cotton Leaf Worm); experiment: Example B18: Spodoptera littoralis, compound in agar absorbed by lettuce roots, mortality, anti-feedant effect and growth inhibition; type: in vivo; conditions: 144 h, test rate of 12.5 ppm, uptake by lettuce roots, Spodoptera eggs, 6 days after infestation, read-out: effect in at least one of the three categories (mortality, anti-feeding, or growth inhibition)
Source text: as §5, with “pipette” for “pipette prepared”, “for mortality,” for “for”, “effect and growth inhibition” for “effect”

[16] = tested on: Spodoptera littoralis (Egyptian Cotton Leaf Worm); experiment: Example B20: Spodoptera littoralis, compound in agar absorbed by lettuce roots, mortality; type: in vivo; conditions: 144 h, test rate of 12.5 ppm, uptake by lettuce roots, Spodoptera eggs, 6 days after infestation
Source text: Test compounds were applied by pipette prepared from 10,000 ppm DMSO stock solutions into 24-well plates and mixed with agar. Lettuce seeds were placed onto the agar and the multi well plate was closed by another plate which contained also agar. After 7 days the compound was absorbed by the roots and the lettuce grew into the lid plate. The lettuce leaves were then cut off into the lid plate.
Spodoptera eggs were pipetted through a plastic stencil onto a humid gel blotting paper and the lid plate was closed with it. The samples were assessed for mortality 6 days after infestation.

[17] = tested on: Euschistus heros (Neotropical Brown Stink Bug); experiment: Example B4: Euschistus heros, sprayed soybean leaves, growth inhibition; type: in vivo; conditions: 120 h, application rate of 200 ppm, N2 nymphs, 5 days after infestation
Procedure: as §4, with “growth inhibition in comparison to untreated samples” for “mortality”, “infestation. Control of Euschistus heros by a test sample is given when the growth inhibition is higher than the untreated sample.” for “infestation.”

[18] = tested on: Frankliniella occidentalis (Western Flower Thrips); experiment: Example B7: Frankliniella occidentalis, sprayed sunflower leaf discs, mortality; type: in vivo; conditions: foliar, 168 h, application rate of 200 ppm, population of mixed ages, 7 days after infestation
Procedure: Sunflower leaf discs were placed on agar in 24-well microtiter plates and sprayed with aqueous test solutions prepared from 10,000 DMSO stock solutions. After drying the leaf discs were infested with a Frankliniella population of mixed ages. The samples were assessed for mortality 7 days after infestation.

[19] = tested on: Spodoptera littoralis (Egyptian Cotton Leaf Worm); experiment: Example B15: Spodoptera littoralis, sprayed cotton leaf discs, growth inhibition; type: in vivo; conditions: foliar, 72 h, application rate of 200 ppm, L1 larvae, 3 days after infestation, read-out: control (growth inhibition)
Procedure: as §2, with “growth inhibition” for “anti-feeding effect”, “growth inhibition” for “anti-feedant effect”

[20] = tested on: Myzus persicae (Green Peach Aphid); experiment: Example B9: Myzus persicae, roots of pea seedlings in test solution, mortality; type: in vivo; conditions: 144 h, test rate of 24 ppm, 6 days
Procedure: Roots of pea seedlings infested with an aphid population of mixed ages were placed directly into aqueous test solutions prepared from 10,000 DMSO stock solutions. The samples were assessed for mortality 6 days after placing seedlings into test solutions.

Structure (SMILES) | percent effect (mortality or growth inhibition) at 200 ppm [1] | pest or weed control at 200 ppm [3] | inhibition at 200 ppm [4] | mortality at 200 ppm [5] | mortality at 200 ppm [7] | percent effect (mortality or growth inhibition) at 200 ppm [8] | pest or weed control at 12.5 ppm [9] | mortality at 200 ppm [10] | mortality at 200 ppm [11] | percent effect (mortality or growth inhibition) at 200 ppm [12] | percent control (mortality, anti-feedant effect or growth inhibition) at 200 ppm [13] | mortality at 200 ppm [14] | percent effect (mortality, anti-feeding or growth inhibition) at 12.5 ppm [15] | mortality at 12.5 ppm [16] | inhibition at 200 ppm [17] | other results
CCS(=O)(=O)c1cc(-c2cc(F)cc(F)c2)cnc1-c1cn2cnc(C(F)(F)F)cc2n1 [Compound P14] | ≥ 80% | ≥ 80% | ≥ 80% | ≥ 80% | ≥ 80% | ≥ 80% | ≥ 80% | ≥ 80% | ≥ 80% | ≥ 80% | ≥ 80% | ≥ 80% | ≥ 80% | ≥ 80% |  | pest or weed control at 200 ppm [2]: ≥ 80%; mortality at 200 ppm [6]: ≥ 80%
C=Cc1cnc(-c2cn3cnc(C(F)(F)F)cc3n2)c(S(=O)(=O)CC)c1 [Example H6, 2-(3-ethylsulfonyl-5-vinyl-2-pyridyl)-7-(trifluoromethyl)imidazo[1,2-c]pyrimidine] |  |  |  |  |  |  |  |  |  |  |  |  |  |  |  | melting point: 174 to 176 °C
CCS(=O)(=O)c1cc(-c2ccc(Cl)cc2)cnc1-c1cn2cnc(C(F)(F)F)cc2n1 [Compound P5, 2-[5-(4-chlorophenyl)-3-ethylsulfonyl-2-pyridyl]-7-(trifluoromethyl)imidazo [1,2-c]pyrimidine] | ≥ 80% | ≥ 80% |  | ≥ 80% | ≥ 80% | ≥ 80% | ≥ 80% |  | ≥ 80% | ≥ 80% | ≥ 80% | ≥ 80% | ≥ 80% | ≥ 80% | ≥ 80% | mortality at 200 ppm [18]: ≥ 80%
CCS(=O)(=O)c1cc(C2(C#N)CC2)cnc1-c1cn2cnc(C(F)(F)F)cc2n1 [Compound P8, 1-[5-ethylsulfonyl-6-[7-(trifluoromethyl)imidazo[1,2-c]pyrimidin-2-yl]-3-pyridyl]cyclopropanecarbonitrile] | ≥ 80% | ≥ 80% | ≥ 80% | ≥ 80% | ≥ 80% | ≥ 80% |  | ≥ 80% | ≥ 80% | ≥ 80% | ≥ 80% | ≥ 80% |  |  | ≥ 80% | inhibition at 200 ppm [19]: ≥ 80%
CCS(=O)(=O)c1cc(CC#N)cnc1-c1cn2cnc(C(F)(F)F)cc2n1 [Compound P30, 2-[5-ethylsulfonyl-6-[7-(trifluoromethyl)imidazo[1,2-c]pyrimidin-2-yl]-3-pyridyl]acetonitrile] | ≥ 80% |  | ≥ 80% | ≥ 80% | ≥ 80% | ≥ 80% |  |  |  | ≥ 80% |  |  |  |  |  | mortality at 24 ppm [20]: ≥ 80%
